# Results from patent US7732563B2, “Cloning, sequencing and expression of a gene encoding an eukaryotic amino acid racemase, and diagnostic, therapeutic, and vaccination applications of parasite and viral mitogens” (priority 1999, dated 2010).
# What was measured:
# total spleen cells = test: In vitro proliferation assay of splenocytes (3H-thymidine uptake); type: cell-based, mouse; details: for mitogenic activity of rTcPA45 with cultures supplemented with increasing amounts of substrate: 3 mM to 50 mM substrate, dose-dependent, competitive inhibition; for cell proliferation of lymphocytes with substrate alone: 50 mM alone; for mitogenic activity of rTcPA45 after pre-incubation with inhibitor of proline racemase: 50 μg/ml rTcPA45 pre-incubated with 1 mM inhibitor; for 3H-thymidine uptake: after 48 h, ConA 10 μg/ml, LPS 5 μg/ml, BALB/c splenocytes 5×10^4 cells/well
# Description: Briefly, freshly recovered splenocytes from 8 week old male Balb/c mice seeded at a concentration of 5×10^4 cells/well were incubated for 24, 48 and 72 h in 5% FCS RPMI-1640 medium. A 16 h ^3H-thymidine pulse at 1 μCi/well was performed before harvesting. ^3H-Thymidine uptake was determined in a beta-plate liquid scintillation counter (LKB-Wallac). All points were done in triplicate and the corresponding standard deviation calculated. For comparison, ^3H-thymidine uptake after 48 h in the presence of ConA (10 μg/ml) and LPS (5 μg/ml) was 32000 c.p.m. and 3500 c.p.m., respectively. T-cell depletion was performed by incubating freshly recovered spleen cells for 30 min at 37° C. in the presence of anti-Thy 1.2 monoclonal antibody (Cedarlane) and rabbit complement (Cedarlane). In order to rule out a possible mitogenic effect due to LPS contamination in samples, proliferation assays were also performed on freshly recovered splenocytes from the LPS non-responder mouse strain C3H/Hej. Same levels of proliferation were verified. Balb/c mice were purchased from Charles River, France. C3H/Hej mice were maintained in our animal facilities.
# In vitro proliferation is accomplished using freshly recovered splenocytes from BALB/c mice seeded at a density of 5×10^4 cells/well and incubated for 24, 48 and 72 h with increasing concentrations of total parasite supernatants or recombinant TcPa45 protein or other mitogen (0.07-200 μg/ml) with 0.5 μg/ml of the HPLC fractions, or with the conventionally used mitogens concanavalin A (10 μg/ml) and lipopolysaccharide (5 μg/ml) in 5% FCS in RPMI-1640 complete medium. T-cell depletion is accomplished by incubating freshly recovered spleen cells for 30 min. at 37° C. in the presence of monoclonal antibodies against Thy 1.2 and rabbit complement (Cedarlane, Le Perray en Yvelines, France). Analysis of proliferative activity of total splenocytes (5×10^4 cells/well) in the presence of 50 μg/ml enzymatically active rTcPA45 or other mitogen is also compared with the proliferation obtained using the same amounts of rTcPA45 protein or other mitogen lacking racemase activity (by heating for 10 min. at […] or by long term storage at 4° C.). Inhibition of proliferation is obtained by adding to the splenocyte cultures 50 μg/ml rTcPA45 or other mitogen pre-incubated for 10 min. at 37° C. with 1 mM inhibitor, either specific (pyrrole-2-carboxylic acid) or nonspecific (iodoacetamide or iodoacetate). Competitive assays of proliferative activity by 50 μg/ml rtcPA45 or other mitogen are done by adding increasing concentrations of specific substrates i.e., proline racemase substrates (L- or D-proline) for the mitogen rTcPA45 ranging from 3 mM to 50 mM. Controls include the incubation of splenocytes (5×10^4 cells/well) with substrate alone, i.e., 50 mM L- or D-proline in RPMI medium alone for prline racemase. Cultures are collected after a 16-hour pulse or 1 μCi/well ^3H-thymidine uptake was determined in a beta-plate liquid scintillation counter (LKB-Wallac, Orsay, France). All data points are obtained in triplicate and the corresponding standard deviation is calculated.
# 5×10^5 naive spleen cells/well (96 well plate) were stimulated in vitro with different doses of rTcPA45 (ranging in FIG. 4b from 0.8 to 200 μg/ml final) for 24, 48 and 72 h, at 37° C., 5% CO2. Cultures were pulsed with ^3H-Thymidine (1 μCi/well) for 16-18 h before harvesting. ^3H-thymidine incorporation was obtained after counting using a beta-plate. Results present arithmetic means of c.p.m. (counts/minute) from 6 wells/dose of rTcPA45 or wells containing medium alone (+/−SD of the means). (FIG. 4b)
# rTcPA45 proline racemase = molecular target: T1, rTcPA45 proline racemase (Trypanosoma cruzi, UniProt Q4DA80); type: biochemical; details: 80 mM L-proline; inhibitors 6 mM to 100 mM
# T1 construct: made in house; host or cells: E. coli (pET28b(+))
# Description: To investigate the genomic organization and transcription of the Tc45 gene, Southern and Northern blot analyses were done. FIG. 4 depicts the results of characterization of rTcPA45 activities. FIG. 4, part a, is an 8% SDS-PAGE gel of rTcPA45 (Coomasie blue staining). Part b depicts the proliferative activity of total splenocytes (5×10^4 cells/well) in the presence of increasing concentrations of rTcPA45 (μg/ml). […] Reaction conditions were: 0.2 M Na-acetate/25 mM β-mercaptoethanol buffer, pH6, rTcPA45 (3 μg/ml), 30 min incubation at 37° C. in 500 μl. The reaction was stopped by incubating for 10 min at 80° C. […] Reactions were carried out for 30 min at 37° C. and stopped for 5 min at 80° C. All reagents and inhibitors were purchased from Sigma. The shift in optical rotation was measured in a Polarimeter 241 MC (Perkin Elmer).
# 3 μg of rTcPA45 was diluted in 500 μl of buffer (0.2M NaOAc, […] β-mercaptoethanol, pH6.0) containing different concentrations of the substrate (10-80 mM or L- or D-proline). (See FIG. 4c.) The reaction was incubated for 30-60 minutes at 37° C. in a water bath, followed by heat inactivation of the enzyme for 10 minutes at 80° C. Each sample is diluted to 1.5 ml with water and the mixture submitted to measurement of optical rotation using a polarimeter, at 365 nm. A sample without enzyme is used as a control. For optimal pH determination, buffer systems with NaOAc, phosphate, and Tris were used with pH ranging from 4.0-8.2. Curve of temperature was performed between 27° C. to 47° C.
# The percent of racemization of different concentrations of L-proline, D-proline, L-hydroxy-proline and D-hydroxy-proline substrates was calculated by incubating a 500-μl mixture of 3 μg TcPA45 and 10-80 mM substrate in 0.2 M sodium acetate and 25 mM β-mercaptoethanol, pH 6, for 30 min at 37° C. The reaction was stopped by incubation for 10 min at 80° C. Water (1 ml) was then added, and the optical rotation was measured in polarimeter 241 MC (Perkin Elmer, Montignyle Bretonneux, France) at a wavelength of 365 nm, in a cell with a path length of 10 cm. The percent inhibition of racemization of 80 mM L-proline was determined in the presence of different concentrations of several specific and nonspecific inhibitors ranging in concentration from 6 mM to 100 mM. The percent racemization of 80 mM L-proline as a function of pH was determined using 0.2 M sodium acetate, potassium phosphate and Tris-HCl buffers containing 25 mM β-mercaptoethanol; reactions were incubated for 30 min at 37° C. as described above. All reagents and inhibitors were purchased from Sigma.
# T1 sequence (Q4DA80 30-423): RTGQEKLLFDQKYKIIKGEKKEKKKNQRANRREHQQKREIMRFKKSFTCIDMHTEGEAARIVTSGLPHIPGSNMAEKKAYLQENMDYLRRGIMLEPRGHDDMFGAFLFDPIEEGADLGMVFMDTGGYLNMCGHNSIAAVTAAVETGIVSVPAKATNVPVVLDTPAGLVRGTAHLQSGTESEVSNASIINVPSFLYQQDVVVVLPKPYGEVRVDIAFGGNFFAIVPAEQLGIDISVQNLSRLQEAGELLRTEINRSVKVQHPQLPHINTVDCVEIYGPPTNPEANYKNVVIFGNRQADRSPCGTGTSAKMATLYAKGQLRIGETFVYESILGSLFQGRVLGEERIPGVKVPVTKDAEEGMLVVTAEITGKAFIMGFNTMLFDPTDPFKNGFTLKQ
molecule,measurement,setting,value
O=C(O)[C@H]1CCCN1 [D-proline],mitogenic activity of rTcPA45 with cultures supplemented with increasing amounts of substrate,total spleen cells,affected considerably
same,cell proliferation of lymphocytes with substrate alone,total spleen cells,no cell proliferation
O=C(O)[C@@H]1CCCN1 [L-proline],mitogenic activity of rTcPA45 with cultures supplemented with increasing amounts of substrate,total spleen cells,affected considerably
same,cell proliferation of lymphocytes with substrate alone,total spleen cells,no cell proliferation
"NC(=O)CI [iodoacetamide, reference compound]",mitogenic activity of rTcPA45 after pre-incubation with inhibitor of proline racemase,total spleen cells,abolished
same,inhibition of rTcPA45 enzymatic (racemase) activity,rTcPA45 proline racemase,inhibited to different extents
"O=C(O)CI [iodoacetate, reference compound]",mitogenic activity of rTcPA45 after pre-incubation with inhibitor of proline racemase,total spleen cells,abolished
same,inhibition of rTcPA45 enzymatic (racemase) activity,rTcPA45 proline racemase,inhibited to different extents
"O=C(O)/C=C\C(=O)O [maleic acid, reference compound]",inhibition of rTcPA45 enzymatic (racemase) activity,rTcPA45 proline racemase,inhibited to different extents
"O=C(O)c1ccc[nH]1 [pyrrole-2-carboxylic acid, reference compound]",mitogenic activity of rTcPA45 after pre-incubation with inhibitor of proline racemase,total spleen cells,abolished
same,inhibition of rTcPA45 enzymatic (racemase) activity,rTcPA45 proline racemase,inhibited to different extents
concanavalin A [ConA],3H-thymidine uptake,total spleen cells,32000 c.p.m.
same,3H-thymidine uptake,total spleen cells; listed as concavalin A,"32,000 c.p.m."
lipopolysaccharide [LPS],3H-thymidine uptake,total spleen cells,3500 c.p.m.
same,3H-thymidine uptake,total spleen cells; listed as lipopolysaccharide,"3,500 c.p.m."
